Tests used:
Assay type in all cases: cell-based
[1] = molecular target: T1, M2 muscarinic receptor (Homo sapiens, UniProt P08172); test: Functional mobilization of intracellular calcium (FLIPR), M2-CHO cells; details: for M2 Activity: M2-CHO cells, calcium mobilization (FLIPR)
T1 construct: expressed in transfected cells; host or cells: CHO (M2-CHO)
T1 sequence (P08172 1-466): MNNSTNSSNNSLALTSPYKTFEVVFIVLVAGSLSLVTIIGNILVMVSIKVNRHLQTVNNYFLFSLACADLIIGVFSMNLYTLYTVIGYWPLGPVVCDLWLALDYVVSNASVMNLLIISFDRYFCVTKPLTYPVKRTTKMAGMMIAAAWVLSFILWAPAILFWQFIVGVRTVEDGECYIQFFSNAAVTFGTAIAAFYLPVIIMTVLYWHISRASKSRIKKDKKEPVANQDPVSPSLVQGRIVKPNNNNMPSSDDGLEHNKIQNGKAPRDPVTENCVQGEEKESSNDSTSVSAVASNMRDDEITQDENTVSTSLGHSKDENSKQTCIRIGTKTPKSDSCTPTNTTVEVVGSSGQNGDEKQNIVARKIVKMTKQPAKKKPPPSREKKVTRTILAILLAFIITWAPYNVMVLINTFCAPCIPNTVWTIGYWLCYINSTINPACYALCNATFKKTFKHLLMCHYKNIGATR
Method in brief: (§1)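 Calcium mobilisation read by FLIPR over 60 s (ex 488/em 540 nm) in recombinant muscarinic CHO lines loaded with calcium dye plus 1 mM probenecid. Compounds tested as agonists alone, or as inhibitors against EC80 carbachol after 15 min pre-incubation or co-addition; 0.5% DMSO; efficacy scaled to carbachol maximal response.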

[2] = molecular target: T2, M4 muscarinic receptor (Homo sapiens, UniProt P08173); test: Functional mobilization of intracellular calcium (FLIPR), M4-CHO cells; details: for M4 Activity: M4-CHO cells, calcium mobilization (FLIPR)
T2 construct: expressed in transfected cells; host or cells: CHO (M4-CHO)
T2 sequence (P08173 1-479): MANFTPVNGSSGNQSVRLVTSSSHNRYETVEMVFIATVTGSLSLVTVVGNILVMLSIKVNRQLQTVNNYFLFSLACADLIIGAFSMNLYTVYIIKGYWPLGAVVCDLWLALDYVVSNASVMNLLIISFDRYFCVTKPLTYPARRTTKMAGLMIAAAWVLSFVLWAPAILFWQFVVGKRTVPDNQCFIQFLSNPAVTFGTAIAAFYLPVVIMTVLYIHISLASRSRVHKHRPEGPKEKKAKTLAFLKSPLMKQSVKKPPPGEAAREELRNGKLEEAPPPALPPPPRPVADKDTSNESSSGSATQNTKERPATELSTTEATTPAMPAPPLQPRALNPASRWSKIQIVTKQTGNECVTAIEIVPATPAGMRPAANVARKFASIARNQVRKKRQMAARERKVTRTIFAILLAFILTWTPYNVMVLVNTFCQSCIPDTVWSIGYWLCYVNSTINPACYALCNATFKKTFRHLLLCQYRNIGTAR
Method in brief: as §1

[3] = molecular target: T3, M3 muscarinic receptor (Homo sapiens, UniProt P20309); test: Functional mobilization of intracellular calcium (FLIPR), M3-CHO cells; details: for M3 Activity: M3-CHO cells, calcium mobilization (FLIPR)
T3 construct: expressed in transfected cells; host or cells: CHO (M3-CHO)
Method in brief: as §1

[4] = molecular target: T4, M1 muscarinic receptor (Homo sapiens, UniProt P11229); test: Functional mobilization of intracellular calcium (FLIPR), M1-CHO cells; details: for M1 Activity: M1-CHO cells, calcium mobilization (FLIPR)
T4 construct: expressed in transfected cells; host or cells: CHO (M1-CHO)
T4 sequence (P11229 1-460): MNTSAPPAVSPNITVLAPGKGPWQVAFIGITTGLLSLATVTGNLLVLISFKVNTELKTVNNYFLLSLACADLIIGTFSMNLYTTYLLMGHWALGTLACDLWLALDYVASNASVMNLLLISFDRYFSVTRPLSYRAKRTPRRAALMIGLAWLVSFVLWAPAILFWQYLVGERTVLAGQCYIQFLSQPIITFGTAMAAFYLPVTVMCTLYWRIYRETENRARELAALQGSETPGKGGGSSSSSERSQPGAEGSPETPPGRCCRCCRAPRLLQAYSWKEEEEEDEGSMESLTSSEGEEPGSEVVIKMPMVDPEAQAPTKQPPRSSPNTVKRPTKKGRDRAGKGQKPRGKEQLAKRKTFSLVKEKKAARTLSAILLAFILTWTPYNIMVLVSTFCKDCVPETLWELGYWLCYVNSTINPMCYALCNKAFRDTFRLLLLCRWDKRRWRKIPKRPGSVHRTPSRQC
Method in brief: as §1

[5] = 100% efficacy = maximum response obtained with the Carbachol control
[6] = 100% efficacy is the maximum response obtained with the Carbachol control

T3 sequence (P20309 whole entry): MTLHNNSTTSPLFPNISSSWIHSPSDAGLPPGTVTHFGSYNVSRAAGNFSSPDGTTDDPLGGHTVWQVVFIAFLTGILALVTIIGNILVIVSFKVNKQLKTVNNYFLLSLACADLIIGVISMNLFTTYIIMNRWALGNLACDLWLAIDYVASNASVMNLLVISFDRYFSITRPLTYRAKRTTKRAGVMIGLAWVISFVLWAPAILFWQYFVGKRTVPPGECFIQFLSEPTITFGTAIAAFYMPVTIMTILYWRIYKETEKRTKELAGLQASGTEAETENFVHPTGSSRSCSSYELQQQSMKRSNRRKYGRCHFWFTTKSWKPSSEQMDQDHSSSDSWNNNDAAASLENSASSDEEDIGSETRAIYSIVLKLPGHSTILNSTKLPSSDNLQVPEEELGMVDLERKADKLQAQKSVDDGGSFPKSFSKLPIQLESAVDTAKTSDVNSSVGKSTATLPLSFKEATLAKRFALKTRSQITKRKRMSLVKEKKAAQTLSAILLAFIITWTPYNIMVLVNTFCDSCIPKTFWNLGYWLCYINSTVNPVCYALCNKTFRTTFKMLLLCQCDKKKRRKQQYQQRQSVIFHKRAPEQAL

Row | Emax [1, 5] [%] | Emax [2, 5] [%] | Emax [3, 5] [%] | Emax [4, 5] [%] | Emax [1, 6] [%] | Emax [2, 6] [%] | Emax [3, 6] [%] | Emax [4, 6] [%] | SMILES | M2 Activity [1] | M4 Activity [2] | M3 Activity [3] | M1 Activity [4]
1 | 25 to 100 | 25 to 100 | < 25 | 25 to 100 | – | – | – | – | COc1ccc(-c2ccc(S(C)(=O)=O)cc2)cc1C1CCN(C2CCCC2)CC1 [Compound 275] | + (activity was measured to be greater than 5.0 μM) | ++ (activity was measured to be from 1.0 μM to 5.0 μM) | + (activity was measured to be greater than 5.0 μM) | + (activity was measured to be greater than 5.0 μM)
2 | < 25 | 25 to 100 | < 25 | 25 to 100 | – | – | – | – | Fc1ccccc1C1CCN(C2C[C@H]3CC[C@H]2C3)CC1 (some centres unmarked) [Compound 259] | – | – | – | –
3 | – | – | – | – | 25 to 100 | > 100 | 25 to 100 | 25 to 100 | CCON=C1CCC(N2CCC(c3cc(Cl)ccc3OC)CC2)CC1 (centres unmarked) [Compound 417, 4-(4-(5-chloro-2-methoxyphenyl)piperidin-1-yl)cyclohexanone O-ethyl oxime] | +++ (activity was measured to be less than 1.0 μM) | +++ (activity was measured to be less than 1.0 μM) | + (activity was measured to be greater than 5.0 μM) | +++ (activity was measured to be less than 1.0 μM)
4 | – | – | – | – | < 25 | < 25 | < 25 | < 25 | COc1ccc(-c2ccc(C(=O)Nc3nccs3)cc2)cc1C1CCN(C2CCOCC2)CC1 [Compound 389] | + (activity was measured to be greater than 5.0 μM) | + (activity was measured to be greater than 5.0 μM) | + (activity was measured to be greater than 5.0 μM) | + (activity was measured to be greater than 5.0 μM)
5 | < 25 | < 25 | < 25 | < 25 | – | – | – | – | COc1ccc(-c2ccccc2C#N)cc1C1CCN([C@@H]2C[C@H]3CC[C@H]2C3)CC1 [Compound 92] | + (activity was measured to be greater than 5.0 μM) | + (activity was measured to be greater than 5.0 μM) | + (activity was measured to be greater than 5.0 μM) | + (activity was measured to be greater than 5.0 μM)
6 | < 25 | 25 to 100 | < 25 | < 25 | – | – | – | – | COc1ccc(-c2cccc(Cl)c2)cc1C1CCN([C@@H]2C[C@H]3CC[C@H]2C3)CC1 [Compound 143] | + (activity was measured to be greater than 5.0 μM) | + (activity was measured to be greater than 5.0 μM) | + (activity was measured to be greater than 5.0 μM) | + (activity was measured to be greater than 5.0 μM)
7 | – | – | – | – | < 25 | < 25 | < 25 | < 25 | COc1ccc(-c2ccc(NC(C)=O)cc2)cc1C1CCN([C@H]2C[C@H]3CC[C@H]2C3)CC1 [Compound 400] | + (activity was measured to be greater than 5.0 μM) | + (activity was measured to be greater than 5.0 μM) | + (activity was measured to be greater than 5.0 μM) | + (activity was measured to be greater than 5.0 μM)

The remaining lines, values behind:

Row | SMILES | Emax [1, 5] [%] | Emax [2, 5] [%] | Emax [3, 5] [%] | Emax [4, 5] [%] | Emax [1, 6] [%] | Emax [2, 6] [%] | Emax [3, 6] [%] | Emax [4, 6] [%] | M2 Activity [1] | M4 Activity [2] | M3 Activity [3] | M1 Activity [4]
8 | COc1cc(F)c(F)cc1C1CCN([C@@H]2C[C@H]3CC[C@H]2C3)CC1 [Compound 76] | < 25 | 25 to 100 | < 25 | < 25 | – | – | – | – | + (activity was measured to be greater than 5.0 μM) | ++ (activity was measured to be from 1.0 μM to 5.0 μM) | + (activity was measured to be greater than 5.0 μM) | + (activity was measured to be greater than 5.0 μM)
9 | CCOC(=O)N1CCC(CN2CCC(OC)(c3cc(F)ccc3OC)CC2)CC1 [Compound 295] | 25 to 100 | 25 to 100 | < 25 | 25 to 100 | – | – | – | – | ++ (activity was measured to be from 1.0 μM to 5.0 μM) | +++ (activity was measured to be less than 1.0 μM) | + (activity was measured to be greater than 5.0 μM) | +++ (activity was measured to be less than 1.0 μM)
10 | COc1ccc(-c2ccc(F)cc2)cc1C1CCN([C@H]2C[C@H]3CC[C@H]2C3)CC1 [Compound 267] | < 25 | 25 to 100 | < 25 | 25 to 100 | – | – | – | – | + (activity was measured to be greater than 5.0 μM) | + (activity was measured to be greater than 5.0 μM) | + (activity was measured to be greater than 5.0 μM) | + (activity was measured to be greater than 5.0 μM)
11 | COc1ccccc1C1CCN(C2C3CC4CC(C3)CC2C4)CC1 (centres unmarked) [Compound 408] | – | – | – | – | < 25 | 25 to 100 | < 25 | 25 to 100 | + (activity was measured to be greater than 5.0 μM) | +++ (activity was measured to be less than 1.0 μM) | + (activity was measured to be greater than 5.0 μM) | + (activity was measured to be greater than 5.0 μM)
12 | COc1ccc(C(=O)C2CC2)cc1C1CCN([C@H]2C[C@H]3CC[C@H]2C3)CC1 [Compound 3] | < 25 | < 25 | < 25 | < 25 | – | – | – | – | + (activity was measured to be greater than 5.0 μM) | + (activity was measured to be greater than 5.0 μM) | + (activity was measured to be greater than 5.0 μM) | + (activity was measured to be greater than 5.0 μM)
13 | COc1ccccc1C1CCN(CC2CCCCC2)CC1 [Compound 320] | < 25 | 25 to 100 | < 25 | < 25 | – | – | – | – | + (activity was measured to be greater than 5.0 μM) | ++ (activity was measured to be from 1.0 μM to 5.0 μM) | + (activity was measured to be greater than 5.0 μM) | + (activity was measured to be greater than 5.0 μM)
14 | Cc1cccc(-c2ccccc2C2CCN([C@H]3C[C@H]4CC[C@H]3C4)CC2)c1 [Compound 283] | < 25 | 25 to 100 | < 25 | < 25 | – | – | – | – | + (activity was measured to be greater than 5.0 μM) | ++ (activity was measured to be from 1.0 μM to 5.0 μM) | + (activity was measured to be greater than 5.0 μM) | + (activity was measured to be greater than 5.0 μM)
15 | COc1ccc(F)cc1C1(F)CCN(C2CCCCC2)CC1 [Compound 59] | < 25 | 25 to 100 | < 25 | 25 to 100 | – | – | – | – | + (activity was measured to be greater than 5.0 μM) | ++ (activity was measured to be from 1.0 μM to 5.0 μM) | + (activity was measured to be greater than 5.0 μM) | + (activity was measured to be greater than 5.0 μM)
